Experimental data from ChEMBL document CHEMBL3885881, “DrugMatrix”.

Species: Rattus norvegicus
Test: DrugMatrix - Regimen: Daily Repeat
Format: toxicity, organism-based, Sprague-Dawley
Set-up: regimen Daily Repeat, gender Male, age 6-8 weeks
Details: in vivo, po, route oral GAVAGE, […]; for ABSOLUTE BASOPHIL / ABSOLUTE EOSINOPHIL / ABSOLUTE LYMPHOCYTE / ABSOLUTE MONOCYTE / ABSOLUTE SEGMENTED NEUTROPHIL / BASOPHIL / EOSINOPHIL / ERYTHROCYTE COUNT / HEMATOCRIT / HEMOGLOBIN / LEUKOCYTE COUNT / LYMPHOCYTE / MEAN CORPUSCULAR HEMOGLOBIN / MEAN CORPUSCULAR HEMOGLOBIN CONCENTRATION / MEAN CORPUSCULAR VOLUME / MONOCYTE / NEUTROPHIL / NUCLEATED RED BLOOD CELLS / PLATELET COUNT: tissue Blood; for ALANINE AMINOTRANSFERASE / ALBUMIN / ALKALINE PHOSPHATASE / ASPARTATE AMINOTRANSFERASE / BLOOD UREA NITROGEN / CARBON DIOXIDE / CHLORIDE / CHOLESTEROL / CREATINE PHOSPHOKINASE / CREATININE / GLUCOSE / LACTATE DEHYDROGENASE / LIPASE / PHOSPHORUS / POTASSIUM / SODIUM / TOTAL BILIRUBIN / TOTAL PROTEIN / URIC ACID: tissue Plasma
[1] = 0 mg/kg, 72 h, dose level Control, time 3 day
[2] = 0 mg/kg, 120 h, dose level Control, time 5 day
[3] = 30 mg/kg, 72 h, dose level Low, time 3 day

## CCCCC(=O)N(Cc1ccc(-c2ccccc2-c2nnn[nH]2)cc1)[C@H](C(=O)O)C(C)C
[1]
  ABSOLUTE BASOPHIL: 0 CELLS/uL
  ABSOLUTE EOSINOPHIL: 13.67 CELLS/uL
  ABSOLUTE LYMPHOCYTE: 10069.5 CELLS/uL
  ABSOLUTE MONOCYTE: 50 CELLS/uL
  ABSOLUTE SEGMENTED NEUTROPHIL: 516.83 CELLS/uL
  BASOPHIL: 0%
  EOSINOPHIL: 0.17%
  ERYTHROCYTE COUNT: 5.44 x10E6/uL
  HEMATOCRIT: 33.88%
  HEMOGLOBIN: 13.23 G/DL
  LEUKOCYTE COUNT: 10.65 x10E3/uL
  LYMPHOCYTE: 94.67%
  MEAN CORPUSCULAR HEMOGLOBIN: 24.37 pg
  MEAN CORPUSCULAR HEMOGLOBIN CONCENTRATION: 39.05 G/DL
  MEAN CORPUSCULAR VOLUME: 62.38 fL
  MONOCYTE: 0.67%
  NEUTROPHIL: 4.5%
  NUCLEATED RED BLOOD CELLS: 0.33 /100WBC
  PLATELET COUNT: 414.5 x10E3/uL
  ALANINE AMINOTRANSFERASE: 72 u/L
  ALBUMIN: 3.75 G/DL
  ALKALINE PHOSPHATASE: 375 u/L
  ASPARTATE AMINOTRANSFERASE: 87.5 u/L
  BLOOD UREA NITROGEN: 14 mg/dL
  CARBON DIOXIDE: 27.5 mmol/L
  CHLORIDE: 95.83 MEQ/L
  CHOLESTEROL: 68.5 mg/dL
  CREATINE PHOSPHOKINASE: 284.33 u/L
  CREATININE: 0.16 mg/dL
  GLUCOSE: 156.67 mg/dL
  LACTATE DEHYDROGENASE: 101.83 u/L
  LIPASE: 9.67 u/L
  PHOSPHORUS: 10.33 mg/dL
  POTASSIUM: 5.22 MEQ/L
  SODIUM: 137.67 MEQ/L
  TOTAL BILIRUBIN: 0.13 mg/dL
  TOTAL PROTEIN: 5.43 G/DL
  URIC ACID: 0.8 mg/dL
[2]
  ABSOLUTE BASOPHIL: 0 CELLS/uL
  ABSOLUTE EOSINOPHIL: 20.67 CELLS/uL
  ABSOLUTE LYMPHOCYTE: 11518.33 CELLS/uL
  ABSOLUTE MONOCYTE: 47 CELLS/uL
  ABSOLUTE SEGMENTED NEUTROPHIL: 614 CELLS/uL
  BASOPHIL: 0%
  EOSINOPHIL: 0.17%
  ERYTHROCYTE COUNT: 5.61 x10E6/uL
  HEMATOCRIT: 34.25%
  HEMOGLOBIN: 13.38 G/DL
  LEUKOCYTE COUNT: 12.2 x10E3/uL
  LYMPHOCYTE: 94.33%
  MEAN CORPUSCULAR HEMOGLOBIN: 23.83 pg
  MEAN CORPUSCULAR HEMOGLOBIN CONCENTRATION: 39.08 G/DL
  MEAN CORPUSCULAR VOLUME: 61.03 fL
  MONOCYTE: 0.33%
  NEUTROPHIL: 5.17%
  NUCLEATED RED BLOOD CELLS: 0 /100WBC
  PLATELET COUNT: 941.83 x10E3/uL
  ALANINE AMINOTRANSFERASE: 68.83 u/L
  ALBUMIN: 4.12 G/DL
  ALKALINE PHOSPHATASE: 492.67 u/L
  ASPARTATE AMINOTRANSFERASE: 83.33 u/L
  BLOOD UREA NITROGEN: 14 mg/dL
  CARBON DIOXIDE: 37 mmol/L
  CHLORIDE: 98.67 MEQ/L
  CHOLESTEROL: 56.5 mg/dL
  CREATINE PHOSPHOKINASE: 167.33 u/L
  CREATININE: 0.17 mg/dL
  GLUCOSE: 157.5 mg/dL
  LACTATE DEHYDROGENASE: 104.83 u/L
  LIPASE: 10 u/L
  PHOSPHORUS: 10.43 mg/dL
  POTASSIUM: 5.46 MEQ/L
  SODIUM: 143.87 MEQ/L
  TOTAL BILIRUBIN: 0.17 mg/dL
  TOTAL PROTEIN: 5.72 G/DL
  URIC ACID: 0.85 mg/dL
[3]
  ABSOLUTE BASOPHIL: 0 CELLS/uL
  ABSOLUTE EOSINOPHIL: 32 CELLS/uL
  ABSOLUTE LYMPHOCYTE: 7448.67 CELLS/uL
  ABSOLUTE MONOCYTE: 0 CELLS/uL
  ABSOLUTE SEGMENTED NEUTROPHIL: 586 CELLS/uL
  BASOPHIL: 0%
  EOSINOPHIL: 0.33%
  ERYTHROCYTE COUNT: 5.55 x10E6/uL
  HEMATOCRIT: 33.7%
  HEMOGLOBIN: 13.27 G/DL
  LEUKOCYTE COUNT: 8.07 x10E3/uL
  LYMPHOCYTE: 92.33%
  MEAN CORPUSCULAR HEMOGLOBIN: 23.9 pg
  MEAN CORPUSCULAR HEMOGLOBIN CONCENTRATION: 39.33 G/DL
  MEAN CORPUSCULAR VOLUME: 60.7 fL
  MONOCYTE: 0%
  NEUTROPHIL: 7.33%
  NUCLEATED RED BLOOD CELLS: 0.67 /100WBC
  PLATELET COUNT: 891 x10E3/uL
  ALANINE AMINOTRANSFERASE: 67.67 u/L
  ALBUMIN: 3.93 G/DL
  ALKALINE PHOSPHATASE: 446.33 u/L
  ASPARTATE AMINOTRANSFERASE: 94.33 u/L
  BLOOD UREA NITROGEN: 14.33 mg/dL
  CARBON DIOXIDE: 25 mmol/L
  CHLORIDE: 95.5 MEQ/L
  CHOLESTEROL: 77.67 mg/dL
  CREATINE PHOSPHOKINASE: 130 u/L
  CREATININE: 0.19 mg/dL
  GLUCOSE: 147 mg/dL
  LACTATE DEHYDROGENASE: 98 u/L
  LIPASE: 11.33 u/L
  PHOSPHORUS: 9.5 mg/dL
  POTASSIUM: 5.71 MEQ/L
  SODIUM: 138.1 MEQ/L
  TOTAL BILIRUBIN: 0.1 mg/dL
  TOTAL PROTEIN: 5.53 G/DL
  URIC ACID: 0.57 mg/dL
